Assay results: US20260049071A1, “PROTEIN TYROSINE KINASE INHIBITOR AND MEDICAL USE THEREOF” (BEYANG THERAPEUTICS CO., LTD., priority 2022, published 2026)
≈ marks a conversion by molar mass, not a printed value. Read-outs that look alike come from different tables or passages of the source.

Tests used:
EGFR = EGFR (Homo sapiens (Human), UniProt P00533); test: Kinase inhibition, Mobility Shift Assay (EGFR); type: biochemical
Procedure, shortened: (§1)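 Mobility shift assay: each kinase preincubated 10 min at room temperature with compound, then reacted with FAM-labeled peptide, MgCl2 and ATP at 28° C. for varying times. Substrate-to-product conversion read on Caliper; % inhibition normalised to no-kinase and DMSO controls, and IC50 fitted.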

[1] = pH 2
Procedure: (§2) After sonication for 10 min, fix them on a shaker and shaking for 8 h at room temperature. After shaking, sonicate for 10 min and centrifuge for 15 min at 13,000 rpm. Pipette 0.1 mL of supernatant into a new tube, shake and rinse it with 5 mL, and discard the liquid. Transfer 0.5 mL of the supernatant again to a new tube, centrifuge it for 15 min at 13,000 rpm, then collect the supernatant (if necessary, dilute with water) and analyze it by LC-MS.
(§3) The sample concentrations at 3-5 points are subjected to fitting and reticle for quantification.

FLT4 (VEGFR3) = FLT4 (VEGFR3) (Homo sapiens (Human), UniProt P35916); test: Kinase inhibition, Mobility Shift Assay (VEGFR3); type: biochemical
Procedure, shortened: as §1

KDR (VEGFR2) = KDR (VEGFR2) (Homo sapiens (Human), UniProt P35968); test: Kinase inhibition, Mobility Shift Assay (VEGFR2); type: biochemical
Procedure, shortened: as §1

FLT1 (VEGFR1) = FLT1 (VEGFR1) (Homo sapiens (Human), UniProt P17948); test: Kinase inhibition, Mobility Shift Assay (VEGFR1); type: biochemical
Procedure, shortened: as §1

[2] = Compound distribution in plasma and ocular tissues after single ocular dose in Dutch belted rabbits; type: in vivo; conditions: eye drops 1 mg/mL (0.05 mg/eye), 0.5 h, 4 h or 8 h post-dose
Text: Age-related macular degeneration and diabetic retinopathy are associated with neovascularization in the posterior eye segment Due to the corneal and conjunctival barrier, one of the main problems with topical eye drops used to treat the posterior eye segment disorders is the low-efficiency delivery of the drug to the posterior eye segment. Therefore, it is important to measure the distribution of the compound in an ophthalmic formulation in several major ocular tissues. […] Dutch belted rabbits were used in this experiment. […]
In this experiment, male Dutch belted rabbits weighed 1.5-2.5 kg were purchased from Pizhou Dongfang Breeding Co., Ltd. Any operation on the laboratory animals in this experiment was in compliance with the relevant SOP requirements of the experimental operation of 3D BioOptima, Suzhou, China, and had been approved by the Institutional Animal Care and Use Committee (IACUC) of 3D BioOptima. […] The prepared dose formulations were freshly prepared on the day of administration, samples were retained and the actual concentration of the dose formulation was determined.
On the day of the experiment, animals were administrated at 1 mg/mL (0.05 mg/eye, 50 μL/eye). […] The concentration of each analyte in the rabbit ocular tissues and plasma obtained in this experiment was determined by LC-MS/MS. […]

[3] = statement in the summary; cited from earlier work
melanin = test: Binding capacity of compounds to melanin; type: in vitro ADME; conditions: Sepia officinalis (cuttlefish), melanin suspension (1 mg/mL); 1 mg/mL melanin suspension in PBS pH 7.4, 2 μM compound, 2 h at 37° C.; read-out: Fu % (percentage of free drug, not bound to melanin)
Procedure, shortened: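 Compound at 2 μM final incubated with 1 mg/mL Sepia melanin suspension in PBS pH 7.4 for 2 h at 37 °C with shaking; blank control in PBS with 0.1% BSA. Supernatant concentrations measured by LC-MS/MS; bound fraction from melanin versus control samples, free fraction as 100 − Fb.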

[4] = Thermodynamic solubility assay; conditions: aqueous buffer, pH 2, aqueous buffer, thermodynamic from solid
Procedure: as §2, §3

Chain of KDR (VEGFR2) (P35968 790-1356): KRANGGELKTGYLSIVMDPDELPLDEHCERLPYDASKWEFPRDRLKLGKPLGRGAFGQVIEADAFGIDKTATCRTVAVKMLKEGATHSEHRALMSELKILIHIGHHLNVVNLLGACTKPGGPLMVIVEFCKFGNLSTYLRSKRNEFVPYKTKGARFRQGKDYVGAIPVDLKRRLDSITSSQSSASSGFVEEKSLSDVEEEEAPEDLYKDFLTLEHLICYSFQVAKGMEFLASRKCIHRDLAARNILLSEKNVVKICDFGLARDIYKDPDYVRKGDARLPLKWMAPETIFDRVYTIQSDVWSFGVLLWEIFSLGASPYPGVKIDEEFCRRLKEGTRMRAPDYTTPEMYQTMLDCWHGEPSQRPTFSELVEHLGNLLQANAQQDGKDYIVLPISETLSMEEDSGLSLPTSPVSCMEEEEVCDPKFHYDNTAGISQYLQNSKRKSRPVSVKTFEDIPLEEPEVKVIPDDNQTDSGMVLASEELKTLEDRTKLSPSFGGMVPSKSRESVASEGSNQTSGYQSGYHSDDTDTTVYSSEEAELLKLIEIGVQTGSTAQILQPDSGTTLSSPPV
Chain of FLT4 (VEGFR3) (P35916 25-1363): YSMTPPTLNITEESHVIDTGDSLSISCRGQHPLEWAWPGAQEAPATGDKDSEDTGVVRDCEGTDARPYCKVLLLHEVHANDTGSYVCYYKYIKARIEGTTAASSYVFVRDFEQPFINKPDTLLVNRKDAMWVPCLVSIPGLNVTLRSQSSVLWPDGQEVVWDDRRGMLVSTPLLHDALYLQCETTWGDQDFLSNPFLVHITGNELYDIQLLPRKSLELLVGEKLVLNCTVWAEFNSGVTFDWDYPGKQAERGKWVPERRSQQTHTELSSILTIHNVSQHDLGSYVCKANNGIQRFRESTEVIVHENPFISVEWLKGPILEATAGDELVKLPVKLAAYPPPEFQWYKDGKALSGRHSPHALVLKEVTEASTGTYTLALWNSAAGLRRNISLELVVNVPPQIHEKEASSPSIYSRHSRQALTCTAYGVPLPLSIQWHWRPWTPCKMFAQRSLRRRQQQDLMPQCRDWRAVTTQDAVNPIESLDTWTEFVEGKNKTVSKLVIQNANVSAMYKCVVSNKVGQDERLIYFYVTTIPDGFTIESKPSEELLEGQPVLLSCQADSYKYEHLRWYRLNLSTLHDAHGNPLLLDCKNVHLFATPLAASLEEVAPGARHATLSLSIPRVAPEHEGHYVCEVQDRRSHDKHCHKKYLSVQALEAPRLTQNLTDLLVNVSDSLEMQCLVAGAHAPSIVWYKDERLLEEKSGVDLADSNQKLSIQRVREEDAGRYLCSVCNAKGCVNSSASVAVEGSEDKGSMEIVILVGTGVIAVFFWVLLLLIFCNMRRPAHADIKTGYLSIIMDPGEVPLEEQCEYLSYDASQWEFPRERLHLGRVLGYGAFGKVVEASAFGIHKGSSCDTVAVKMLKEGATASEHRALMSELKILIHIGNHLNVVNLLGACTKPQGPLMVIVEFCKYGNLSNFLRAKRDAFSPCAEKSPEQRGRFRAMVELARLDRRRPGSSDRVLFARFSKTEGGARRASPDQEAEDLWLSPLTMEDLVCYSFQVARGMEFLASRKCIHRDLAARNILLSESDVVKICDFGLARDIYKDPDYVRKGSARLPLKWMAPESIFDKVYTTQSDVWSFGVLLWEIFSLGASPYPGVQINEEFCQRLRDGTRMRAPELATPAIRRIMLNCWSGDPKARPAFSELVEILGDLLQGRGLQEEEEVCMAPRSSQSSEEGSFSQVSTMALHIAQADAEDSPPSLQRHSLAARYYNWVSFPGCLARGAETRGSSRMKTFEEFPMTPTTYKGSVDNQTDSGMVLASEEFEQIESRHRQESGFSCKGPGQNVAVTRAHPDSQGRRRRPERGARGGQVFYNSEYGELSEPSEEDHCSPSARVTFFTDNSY
Chain of EGFR (P00533 25-1210): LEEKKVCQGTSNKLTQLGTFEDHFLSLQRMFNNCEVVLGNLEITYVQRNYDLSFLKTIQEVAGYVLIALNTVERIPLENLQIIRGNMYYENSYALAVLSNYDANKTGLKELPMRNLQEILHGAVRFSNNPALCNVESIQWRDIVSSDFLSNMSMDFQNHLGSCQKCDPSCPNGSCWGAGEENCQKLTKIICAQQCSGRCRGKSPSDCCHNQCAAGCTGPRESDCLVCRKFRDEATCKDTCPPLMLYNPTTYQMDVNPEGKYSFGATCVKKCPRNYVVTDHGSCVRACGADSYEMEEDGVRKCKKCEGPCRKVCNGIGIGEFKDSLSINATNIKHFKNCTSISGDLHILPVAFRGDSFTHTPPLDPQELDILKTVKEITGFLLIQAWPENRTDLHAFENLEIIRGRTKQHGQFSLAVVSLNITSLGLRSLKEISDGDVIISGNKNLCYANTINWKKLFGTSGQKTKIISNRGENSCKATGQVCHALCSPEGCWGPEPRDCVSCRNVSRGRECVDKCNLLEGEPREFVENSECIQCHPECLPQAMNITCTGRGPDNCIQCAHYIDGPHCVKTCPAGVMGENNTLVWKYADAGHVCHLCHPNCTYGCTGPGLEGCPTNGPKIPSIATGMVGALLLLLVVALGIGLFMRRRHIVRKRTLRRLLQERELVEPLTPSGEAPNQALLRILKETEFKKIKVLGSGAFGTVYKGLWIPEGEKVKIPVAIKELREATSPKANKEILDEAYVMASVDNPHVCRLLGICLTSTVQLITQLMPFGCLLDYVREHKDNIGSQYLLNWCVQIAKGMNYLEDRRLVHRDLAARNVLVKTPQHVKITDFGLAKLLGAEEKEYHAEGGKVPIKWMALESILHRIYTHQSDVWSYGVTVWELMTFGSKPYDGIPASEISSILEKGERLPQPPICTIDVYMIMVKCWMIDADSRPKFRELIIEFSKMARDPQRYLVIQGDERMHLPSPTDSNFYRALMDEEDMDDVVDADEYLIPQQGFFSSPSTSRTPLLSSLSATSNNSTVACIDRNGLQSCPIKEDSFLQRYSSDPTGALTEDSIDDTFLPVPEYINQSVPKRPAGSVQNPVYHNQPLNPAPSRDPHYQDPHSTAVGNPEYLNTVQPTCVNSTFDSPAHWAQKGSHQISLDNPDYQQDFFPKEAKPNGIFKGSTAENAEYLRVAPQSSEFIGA
Chain of FLT1 (VEGFR1) (P17948 27-1338): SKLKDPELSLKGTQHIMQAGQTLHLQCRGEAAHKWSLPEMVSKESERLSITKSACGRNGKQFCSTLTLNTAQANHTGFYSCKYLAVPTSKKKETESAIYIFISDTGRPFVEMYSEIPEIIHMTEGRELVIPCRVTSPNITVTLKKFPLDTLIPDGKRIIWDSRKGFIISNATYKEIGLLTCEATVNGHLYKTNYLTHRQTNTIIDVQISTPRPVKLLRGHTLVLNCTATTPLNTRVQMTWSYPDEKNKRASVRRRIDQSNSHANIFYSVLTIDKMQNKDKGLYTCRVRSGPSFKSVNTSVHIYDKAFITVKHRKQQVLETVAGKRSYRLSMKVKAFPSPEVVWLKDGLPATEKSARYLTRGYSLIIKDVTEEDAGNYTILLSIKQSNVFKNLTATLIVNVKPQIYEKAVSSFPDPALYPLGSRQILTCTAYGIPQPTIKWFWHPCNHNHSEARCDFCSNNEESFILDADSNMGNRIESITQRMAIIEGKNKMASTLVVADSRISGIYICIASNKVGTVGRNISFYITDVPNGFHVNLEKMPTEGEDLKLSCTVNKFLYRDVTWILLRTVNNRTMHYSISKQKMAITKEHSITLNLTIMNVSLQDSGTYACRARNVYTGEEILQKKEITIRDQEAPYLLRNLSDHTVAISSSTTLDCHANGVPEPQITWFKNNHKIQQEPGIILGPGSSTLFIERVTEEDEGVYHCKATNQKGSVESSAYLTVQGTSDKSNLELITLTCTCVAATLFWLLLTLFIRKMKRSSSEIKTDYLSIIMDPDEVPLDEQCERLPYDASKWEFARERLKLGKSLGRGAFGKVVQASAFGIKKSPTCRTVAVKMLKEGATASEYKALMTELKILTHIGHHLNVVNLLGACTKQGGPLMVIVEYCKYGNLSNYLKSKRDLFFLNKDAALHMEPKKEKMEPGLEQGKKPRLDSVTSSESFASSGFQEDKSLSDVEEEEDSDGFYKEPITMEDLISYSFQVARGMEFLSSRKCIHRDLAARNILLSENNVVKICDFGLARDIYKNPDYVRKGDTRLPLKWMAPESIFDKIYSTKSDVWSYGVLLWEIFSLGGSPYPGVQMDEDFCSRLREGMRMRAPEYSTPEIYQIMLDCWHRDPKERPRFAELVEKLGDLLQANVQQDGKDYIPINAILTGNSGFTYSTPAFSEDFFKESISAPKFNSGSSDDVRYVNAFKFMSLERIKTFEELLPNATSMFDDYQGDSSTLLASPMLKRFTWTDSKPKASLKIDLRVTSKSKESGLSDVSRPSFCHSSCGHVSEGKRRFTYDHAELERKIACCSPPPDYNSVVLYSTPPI

Row | Structure (SMILES) | IC50 (EGFR) [nM] | solubility [1] [µg/mL] | IC50 (FLT4 (VEGFR3)) [nM] | IC50 (KDR (VEGFR2)) [nM] | IC50 (FLT1 (VEGFR1)) [nM] | drug concentration in retina [2] | drug concentration in retina ([2]; listed as axitinib) | solubility [3] [micrograms/milliliter] | fraction unbound at 2 h, 2 μM (melanin) | solubility at 8 h [4] [µg/mL]
1 | CNC(=O)c1ccccc1Sc1ccc2c(/C=C/c3ccccn3)ncn2c1 [Compound I-26, N-methyl-2-({1-[(E)-2-(pyridin-2-yl)vinyl]imidazo[1,5-a]pyridin-6-yl}thio)benzamide] | > 60000 | 142.0 (≈ 367 µM) | > 100 | > 100 | > 100 |  |  |  |  | 
2 | CNC(=O)c1ccccc1Sc1ccc2c(/C=C/c3ccccn3)n[nH]c2c1 [Axitinib] |  |  |  |  |  | below the lower limit of quantitation | below BLOQ | < 2 |  | 
3 | CNC(=O)c1ccccc1Sc1ccc2c(/C=C/c3ccc(OCC4CCCN4)cn3)n[nH]c2c1 (centres unmarked) [Compound I-14, N-methyl-2-({3-[(E)-2-{5-[(pyrrolidin-2-yl)methoxy]pyridin-2-yl}vinyl]-1H-indazol-6-yl}thio)benzamide] | 6000 to 60000 |  | 1 to 10 | 1 to 10 | 1 to 10 |  |  |  | 0.01 to 0.05 | 46.8 (≈ 96.4 µM)
